Source: ChEMBL document CHEMBL1201862, “PubChem BioAssay data set” (2004)
The source made the active and inactive calls.

How the values were obtained:
[1] = molecular target: Cytochrome P450 2C19 (Homo sapiens, UniProt P33261); experiment: Cytochrome panel assay with activity outcomes. Panel member name: p450-cyp2c19 Compounds with AC50 equal or less than 10 uM are considered active; format: functional
[2] = molecular target: Cytochrome P450 2C9 (Homo sapiens, UniProt P11712)
[3] = viability of PTEN-deleted HCT116 cells – cell-based, HCT116 PTEN knockout, dose response (AID 1047); format: functional;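 also: HCT116 colon tumor cells with PTEN knocked out; cells exposed to compound for 60 hours before readout; potency for loss of cell viability measured by luminescence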
[4] = viability of HCT116 lacking mutant beta-catenin – cell-based, human colon tumor, dose response (AID 1045); format: functional;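 also: HCT116 colon tumor cells with beta catenin knocked out; cells exposed to compound for 60 hours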
[5] = Luminescence Cell-Based Dose Confirmation HTS to Identify Inhibitors of Platelet Dense Granule Release. [Related pubchem assays: 1663 (Primary HTS), 1678 (Summary of Project)]; format: functional
[6] = molecular target: Luciferin 4-monooxygenase (Photinus pyralis, UniProt P08659); experiment: inhibition of purified Photinus pyralis luciferase – biochemical, luminescence, dose response (AID 1891)
Chain of Luciferin 4-monooxygenase (P08659 whole entry): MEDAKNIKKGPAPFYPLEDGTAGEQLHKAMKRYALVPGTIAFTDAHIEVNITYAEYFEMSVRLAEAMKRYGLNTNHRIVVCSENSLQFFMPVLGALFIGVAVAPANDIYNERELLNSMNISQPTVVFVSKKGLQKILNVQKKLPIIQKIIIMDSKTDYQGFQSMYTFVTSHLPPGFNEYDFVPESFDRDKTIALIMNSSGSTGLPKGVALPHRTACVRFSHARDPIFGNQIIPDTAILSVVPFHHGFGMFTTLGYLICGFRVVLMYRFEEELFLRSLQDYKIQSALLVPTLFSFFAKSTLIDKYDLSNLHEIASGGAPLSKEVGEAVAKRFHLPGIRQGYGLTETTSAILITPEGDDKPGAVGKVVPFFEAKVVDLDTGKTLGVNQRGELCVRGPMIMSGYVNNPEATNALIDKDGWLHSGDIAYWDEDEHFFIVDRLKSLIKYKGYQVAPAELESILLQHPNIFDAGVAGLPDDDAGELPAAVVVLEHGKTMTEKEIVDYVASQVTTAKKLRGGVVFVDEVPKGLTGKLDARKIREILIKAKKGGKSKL

[7] = molecular target: T1, Calpain-2 catalytic subunit (Sus scrofa, UniProt P43367); experiment: m-calpain protease blockers, concentration series – biochemical, fluorogenic peptide substrate, dose response (AID 1420); format: functional
T1 sequence (P43367 whole entry): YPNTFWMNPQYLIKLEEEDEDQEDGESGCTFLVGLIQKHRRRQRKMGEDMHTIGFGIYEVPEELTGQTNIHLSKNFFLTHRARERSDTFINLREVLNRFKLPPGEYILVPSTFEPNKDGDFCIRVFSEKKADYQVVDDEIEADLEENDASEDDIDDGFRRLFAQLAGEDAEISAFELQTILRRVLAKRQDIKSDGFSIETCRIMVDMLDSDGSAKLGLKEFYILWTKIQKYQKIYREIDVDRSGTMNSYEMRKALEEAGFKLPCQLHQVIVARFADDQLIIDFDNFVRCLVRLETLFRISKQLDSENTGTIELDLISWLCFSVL

[8] = fluconazole-exposed Candida albicans growth modulators – fluorescence, retest, confirmation (AID 2467); format: functional, cell-based
[9] = NIH-3T3 fibroblast cytotoxicity, dose response, cytotoxicity control, cell-based, fluorescence, Alamar Blue, secondary assay (AID 2327); format: functional;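 also: NIH-3T3 mouse fibroblasts cultured with fluconazole at 8 µg/mL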
[10] = tested on: INS1; experiment: INS-1E survival protection against cytokine death – cell-based, luminescence, retest, dose response (AID 449756); format: functional; settings: Rattus norvegicus;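 also: cell death triggered by IL-1 beta plus TNF-alpha plus IFN-gamma mixture; protective hits raise ATP signal compared with cytokine alone wells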
[11] = DRD fibroblast viability loss – cell-based, non-viral oncogenic, luminescence, dose response (AID 1934); format: functional; settings: Homo sapiens
[12] = tested on: BJ; experiment: BJ-TERT fibroblast viability loss – cell-based, RAS-independent, luminescence, dose response (AID 1933); format: functional; settings: Homo sapiens
[13] = tested on: BJ; experiment: BJ-TERT-LT-ST fibroblast viability loss – cell-based, RAS-independent, luminescence, dose response (AID 1935); format: functional; settings: Homo sapiens;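 also: BJ fibroblasts immortalized with TERT plus LT and ST oncogenes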
[14] = molecular target: T2, Ubiquitin-conjugating enzyme E2 N (Homo sapiens, UniProt P61088); format: functional;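 also: Dose-response confirmation in a TR-FRET assay detecting UBC13-driven polyubiquitin chain formation, inhibition measured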
T2 sequence (P61088 whole entry): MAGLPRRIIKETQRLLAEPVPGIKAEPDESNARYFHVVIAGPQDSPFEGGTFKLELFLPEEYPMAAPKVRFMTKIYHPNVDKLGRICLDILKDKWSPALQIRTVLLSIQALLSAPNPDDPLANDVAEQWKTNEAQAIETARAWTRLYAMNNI

[15] = tested on: BJ; experiment: cells; format: functional, cell-based; settings: Homo sapiens
[16] = molecular target: T3, Replicative DNA helicase DnaB (Mycobacterium tuberculosis, UniProt P9WMR3); experiment: DnaB intein splicing inhibitors, dose response, biochemical, cell-free fluorescence (AID 449749); format: functional
T3 sequence (P9WMR3 whole entry): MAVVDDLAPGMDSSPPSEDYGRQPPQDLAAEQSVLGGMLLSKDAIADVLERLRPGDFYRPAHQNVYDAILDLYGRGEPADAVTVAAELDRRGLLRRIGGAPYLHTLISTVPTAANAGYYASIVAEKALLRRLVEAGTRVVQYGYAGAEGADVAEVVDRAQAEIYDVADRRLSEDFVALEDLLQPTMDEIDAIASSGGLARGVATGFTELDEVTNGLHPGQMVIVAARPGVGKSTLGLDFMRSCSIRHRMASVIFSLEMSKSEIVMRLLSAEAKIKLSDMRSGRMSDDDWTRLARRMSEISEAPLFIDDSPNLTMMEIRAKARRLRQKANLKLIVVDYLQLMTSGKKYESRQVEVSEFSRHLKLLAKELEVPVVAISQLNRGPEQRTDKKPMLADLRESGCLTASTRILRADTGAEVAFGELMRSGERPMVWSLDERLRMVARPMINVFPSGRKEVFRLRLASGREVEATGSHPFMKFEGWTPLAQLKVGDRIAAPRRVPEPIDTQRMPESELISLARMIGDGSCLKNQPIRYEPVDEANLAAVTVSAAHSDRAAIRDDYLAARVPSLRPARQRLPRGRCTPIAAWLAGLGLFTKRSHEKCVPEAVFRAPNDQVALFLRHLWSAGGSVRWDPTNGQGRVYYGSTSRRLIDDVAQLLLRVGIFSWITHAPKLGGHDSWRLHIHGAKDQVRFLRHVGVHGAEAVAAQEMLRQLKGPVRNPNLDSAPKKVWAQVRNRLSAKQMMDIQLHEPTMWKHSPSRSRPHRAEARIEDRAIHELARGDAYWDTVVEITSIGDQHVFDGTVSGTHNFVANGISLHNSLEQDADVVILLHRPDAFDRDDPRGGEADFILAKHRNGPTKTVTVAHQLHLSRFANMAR

[17] = molecular target: Cytochrome P450 2D6 (Homo sapiens, UniProt P10635);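 also: CYP2D6 member of a cytochrome P450 panel assay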
Chain of Cytochrome P450 2D6 (P10635 whole entry): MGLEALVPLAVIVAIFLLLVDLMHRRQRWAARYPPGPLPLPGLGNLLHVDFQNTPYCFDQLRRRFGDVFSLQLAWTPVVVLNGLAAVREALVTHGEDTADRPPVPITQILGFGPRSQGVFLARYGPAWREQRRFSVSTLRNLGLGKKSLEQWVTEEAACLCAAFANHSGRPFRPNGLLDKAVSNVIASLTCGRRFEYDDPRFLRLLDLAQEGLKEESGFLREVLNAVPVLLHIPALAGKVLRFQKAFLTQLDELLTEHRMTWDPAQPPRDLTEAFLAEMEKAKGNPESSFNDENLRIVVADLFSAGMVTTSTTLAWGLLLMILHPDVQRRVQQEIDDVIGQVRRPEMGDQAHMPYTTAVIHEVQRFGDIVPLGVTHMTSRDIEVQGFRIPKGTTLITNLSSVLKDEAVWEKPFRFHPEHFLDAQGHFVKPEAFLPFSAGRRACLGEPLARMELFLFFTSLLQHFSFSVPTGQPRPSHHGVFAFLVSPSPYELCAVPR

[18] = molecular target: T4, Protein RecA (Mycobacterium tuberculosis, UniProt P9WHJ3); experiment: Fluorescence Cell-Free Homogeneous Dose Retest to Identify Inhibitors of RecA-Intein Splicing Activity. [Related pubchem assays (depositor defined):AID2097, AID2223, AID489010, AID492950]; format: functional
T4 sequence (P9WHJ3 whole entry): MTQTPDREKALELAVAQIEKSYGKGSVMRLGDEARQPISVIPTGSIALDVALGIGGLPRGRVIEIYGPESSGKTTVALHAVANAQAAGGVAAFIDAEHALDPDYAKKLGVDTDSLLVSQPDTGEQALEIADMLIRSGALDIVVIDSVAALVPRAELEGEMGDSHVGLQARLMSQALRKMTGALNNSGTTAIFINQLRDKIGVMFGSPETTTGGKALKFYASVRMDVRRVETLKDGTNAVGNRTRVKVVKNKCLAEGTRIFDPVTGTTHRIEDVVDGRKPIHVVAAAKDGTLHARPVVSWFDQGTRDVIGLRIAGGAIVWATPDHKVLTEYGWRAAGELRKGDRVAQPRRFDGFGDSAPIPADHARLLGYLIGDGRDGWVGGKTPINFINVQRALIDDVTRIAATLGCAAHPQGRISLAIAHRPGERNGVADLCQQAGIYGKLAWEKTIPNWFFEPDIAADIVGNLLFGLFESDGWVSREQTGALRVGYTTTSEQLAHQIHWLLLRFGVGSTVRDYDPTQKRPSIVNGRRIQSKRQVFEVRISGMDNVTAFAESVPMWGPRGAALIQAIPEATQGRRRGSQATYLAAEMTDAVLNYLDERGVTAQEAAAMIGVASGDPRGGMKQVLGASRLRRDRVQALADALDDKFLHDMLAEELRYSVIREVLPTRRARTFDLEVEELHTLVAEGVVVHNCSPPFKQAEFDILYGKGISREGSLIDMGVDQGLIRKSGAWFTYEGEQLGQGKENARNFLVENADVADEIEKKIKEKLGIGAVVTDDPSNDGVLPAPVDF

[19] = molecular target: Nonstructural protein 1 (Influenza A virus, UniProt Q194T2); format: functional, Influenza A virus (A/California/07/2009(H1N1))
Chain of Nonstructural protein 1 (Q194T2 whole entry): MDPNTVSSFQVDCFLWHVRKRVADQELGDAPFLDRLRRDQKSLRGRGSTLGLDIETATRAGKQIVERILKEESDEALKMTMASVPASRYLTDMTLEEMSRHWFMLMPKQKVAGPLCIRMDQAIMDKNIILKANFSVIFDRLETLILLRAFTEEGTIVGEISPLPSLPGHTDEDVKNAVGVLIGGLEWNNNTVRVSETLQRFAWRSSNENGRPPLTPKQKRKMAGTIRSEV

[20] = molecular target: T5, Cytochrome P450 1A2 (Homo sapiens, UniProt P05177)
T5 sequence (P05177 whole entry): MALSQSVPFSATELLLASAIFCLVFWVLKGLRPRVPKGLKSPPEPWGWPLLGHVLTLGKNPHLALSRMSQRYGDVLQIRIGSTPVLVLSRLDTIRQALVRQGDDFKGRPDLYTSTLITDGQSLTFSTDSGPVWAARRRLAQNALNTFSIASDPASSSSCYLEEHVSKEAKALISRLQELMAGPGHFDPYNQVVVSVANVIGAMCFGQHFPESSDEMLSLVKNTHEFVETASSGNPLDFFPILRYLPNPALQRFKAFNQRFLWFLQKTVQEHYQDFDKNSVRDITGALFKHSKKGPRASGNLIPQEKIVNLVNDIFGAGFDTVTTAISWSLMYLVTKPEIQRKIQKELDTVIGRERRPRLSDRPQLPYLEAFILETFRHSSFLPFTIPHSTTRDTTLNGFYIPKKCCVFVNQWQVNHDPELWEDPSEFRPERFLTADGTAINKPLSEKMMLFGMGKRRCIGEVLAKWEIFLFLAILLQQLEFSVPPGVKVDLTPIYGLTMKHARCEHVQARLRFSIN

[21] = HIV-1 AD8 envelope cell-cell fusion blockers – cherry-pick, dose response (AID 652062); format: functional, cell-based;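 also: luciferase signal from cell-cell fusion driven by HIV-1 clade B AD8 Env; potency is for inhibitors of fusion seen as a drop in luminescence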
[22] = tested on: P388; experiment: cells; format: functional; settings: Mus musculus
[23] = tested on: P388/ADR; experiment: cells; format: functional; settings: Mus musculus
[24] = tested on: SN12K1; experiment: cells; format: functional; settings: Homo sapiens
[25] = Trypanosoma cruzi growth suppression in host cells – NIH3T3 host cells, beta-gal luminescence, confirmation (AID 2044); format: functional, cell-based;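 also: intracellular parasites grown in NIH/3T3 mouse fibroblasts as host cells; luminescent beta-galactosidase reporter signal from transgenic T. cruzi replicating inside host cells; inhibitors lower the luminescence signal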
[26] = molecular target: Cytochrome P450 3A4 (Homo sapiens, UniProt P08684);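 also: CYP3A4 tested as one member of a cytochrome P450 panel screen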
Chain of Cytochrome P450 3A4 (P08684 whole entry): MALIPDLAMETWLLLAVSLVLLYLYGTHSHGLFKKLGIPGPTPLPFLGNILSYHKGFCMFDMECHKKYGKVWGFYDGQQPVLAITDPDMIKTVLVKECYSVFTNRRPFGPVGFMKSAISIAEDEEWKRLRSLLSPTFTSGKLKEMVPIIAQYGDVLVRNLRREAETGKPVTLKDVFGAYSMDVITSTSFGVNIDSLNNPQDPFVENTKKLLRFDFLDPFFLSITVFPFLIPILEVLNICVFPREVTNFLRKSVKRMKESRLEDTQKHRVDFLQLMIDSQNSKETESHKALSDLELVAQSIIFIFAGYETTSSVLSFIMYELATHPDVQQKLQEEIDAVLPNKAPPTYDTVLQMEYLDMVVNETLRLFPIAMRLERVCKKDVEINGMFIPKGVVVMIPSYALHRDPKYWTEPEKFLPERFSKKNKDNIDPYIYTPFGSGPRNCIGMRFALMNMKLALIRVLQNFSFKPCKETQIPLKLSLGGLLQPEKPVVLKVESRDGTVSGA

Chain of Cytochrome P450 2C9 (P11712 whole entry): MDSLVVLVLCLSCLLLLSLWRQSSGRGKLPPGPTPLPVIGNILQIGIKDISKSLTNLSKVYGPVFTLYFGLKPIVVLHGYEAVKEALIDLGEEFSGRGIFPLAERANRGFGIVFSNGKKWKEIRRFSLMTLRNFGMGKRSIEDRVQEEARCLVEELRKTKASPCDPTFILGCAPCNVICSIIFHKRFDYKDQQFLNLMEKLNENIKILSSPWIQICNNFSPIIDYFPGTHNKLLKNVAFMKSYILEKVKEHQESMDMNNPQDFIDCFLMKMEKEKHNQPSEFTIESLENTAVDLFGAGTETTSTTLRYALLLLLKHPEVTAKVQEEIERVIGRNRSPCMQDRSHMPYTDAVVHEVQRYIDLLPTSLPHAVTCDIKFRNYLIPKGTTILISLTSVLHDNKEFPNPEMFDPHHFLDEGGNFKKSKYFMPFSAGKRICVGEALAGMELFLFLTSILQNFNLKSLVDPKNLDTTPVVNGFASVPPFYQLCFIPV
Chain of Cytochrome P450 2C19 (P33261 whole entry): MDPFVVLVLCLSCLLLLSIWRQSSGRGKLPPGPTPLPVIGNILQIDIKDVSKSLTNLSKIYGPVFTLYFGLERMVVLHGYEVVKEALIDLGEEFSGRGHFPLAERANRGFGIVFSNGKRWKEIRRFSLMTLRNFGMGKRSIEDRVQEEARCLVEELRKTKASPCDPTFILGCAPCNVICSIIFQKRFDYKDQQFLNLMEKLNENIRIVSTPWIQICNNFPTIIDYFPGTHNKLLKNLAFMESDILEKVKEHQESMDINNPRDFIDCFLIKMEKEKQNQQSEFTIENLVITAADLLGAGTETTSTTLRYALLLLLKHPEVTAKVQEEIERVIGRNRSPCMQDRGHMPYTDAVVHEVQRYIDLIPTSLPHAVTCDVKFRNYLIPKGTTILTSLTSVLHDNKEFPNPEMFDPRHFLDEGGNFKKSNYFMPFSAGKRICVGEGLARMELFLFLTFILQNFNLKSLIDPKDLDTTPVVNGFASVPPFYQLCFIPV

CCCCN(C)CCCNC(=O)C[S+]([O-])Cc1nc(-c2ccc(OC)c(OC)c2)oc1C (centres undefined)
AC50 [1]: inconclusive | AC50 [2]: inconclusive

CC(=O)Oc1ccc2ccccc2c1C(NC(=O)Cc1ccccc1)c1ccccc1Cl (centres undefined)
EC50 [3]: 22.4 µM (active) | EC50 [4]: 27.7 µM (active)

O=C(Nc1cnn(Cc2ccc(F)cc2)c1)C(c1ccccc1)c1ccccc1
EC50 [5]: 18.2 µM (active) | EC50 [6]: 49.5 µM (active) | IC50 [7]: 9.63 µM (not active)

COc1ccc(/C=C2\N=C(SC)NC2=O)cc1
EC50 [8]: > 38 µM (not active) | EC50 [9]: > 150 µM (inactive)

CN(C)CCCn1cnc2c(c1=N)C(c1ccccc1)c1ccc3ccccc3c1O2 (centres undefined)
AC50 [10]: 6.49 µM (active) | EC50 [11]: 5.25 µM (active) | EC50 [12]: 5.45 µM (inconclusive) | EC50 [13]: 4.25 µM (active) | IC50 [14]: > 20 µM (inactive) | EC50 [15]: 8.21 µM (active)

CCOC(=O)c1oc2nc(CC(C)C)c3c(c2c1N)CCC3
AC50 [2]: inconclusive | AC50 [16]: 91.7 µM (active) | AC50 [17]: 25.1 µM (inconclusive) | EC50 [18]: > 380 µM (inactive)

COc1cc2ccccc2cc1C(=O)N(CCN(C)C)c1nc2ccc(Br)cc2s1
EC50 [8]: > 38 µM (not active) | EC50 [9]: 101 µM (active)

CCCCn1cc[n+](C2=C([N-]S(=O)(=O)c3ccccc3)C(=O)c3ccccc3C2=O)c1
EC50 [3]: 5.34 µM (active) | EC50 [4]: 5.73 µM (active)

Cc1ccccc1N=C(S)NCc1ccc2[nH]c3c(c2c1)CCCC3
IC50 [19]: > 100 µM (active)

O=C(N1CCN(c2ccccn2)CC1)N1c2ccccc2Sc2ccccc21
EC50 [11]: 0.523 µM (active) | EC50 [12]: 0.62 µM (active) | EC50 [13]: 0.979 µM (inconclusive) | IC50 [7]: 4.55 µM (not active) | EC50 [15]: 53.6 µM (inconclusive)

CCOC(=O)C1(Cc2cccc(OC)c2)CCN(Cc2cccc(OCC)c2O)CC1
IC50 [7]: 8.3 µM (not active)

O=c1c(-c2ccc(F)cc2)nc2cnc(N3CCOCC3)nc2n1C[C@H]1CCCO1
AC50 [1]: inconclusive | AC50 [2]: inconclusive

NCCCNC(=O)Cn1c(=O)c2c3c(sc2n(Cc2ccccc2)c1=O)CCCC3
IC50 [19]: > 100 µM (active)

CN(C)C(=O)c1ccc(-c2ccc3ncnc(N4CCC(C(=O)O)CC4)c3c2)cc1
AC50 [20]: 39.8 µM (inconclusive) | AC50 [2]: inconclusive

O=C(CSCc1c(F)cccc1Cl)NCC1CCCO1 (centres undefined)
AC50 [2]: inconclusive

CCN(CC)S(=O)(=O)c1ccc(C)c(NC(S)=NNC(=O)C2CC2)c1
IC50 [7]: > 50 µM (not active)

CN(C)CCCN(C(=O)c1ccc2c(c1)CCCC2)c1nc2ccc(Cl)cc2s1
IC50 [14]: > 20 µM (inactive) | IC50 [19]: > 100 µM (active)

COC(=O)C1CCN(Cc2c(C(=O)N3C[C@@H](C)O[C@@H](C)C3)nc3ccc(Cl)cn23)CC1
EC50 [8]: > 38 µM (not active) | EC50 [9]: > 150 µM (inactive)

COc1cc(C(=O)NCc2ccc3c(c2)cc(C)n3C)cc(OC)c1OC
IC50 [7]: > 50 µM (not active)

Oc1c(Cl)cc(CN2CCCCC2)c2cccnc12
EC50 [11]: 53.1 µM (inconclusive) | EC50 [12]: 1.39 µM (active) | EC50 [13]: 76.1 µM (inconclusive) | EC50 [15]: 25.9 µM (inconclusive)

O=C(Nc1cccc(C(F)(F)F)c1)c1ccc(Cn2cc(Br)cn2)o1
AC50 [21]: 29.6 µM (active) | AC50 [17]: 22.4 µM (inconclusive)

COCCCN=C(S)NNC(=O)C1CC1c1ccc(C(C)(C)C)cc1 (centres undefined)
IC50 [7]: > 50 µM (not active)

O=NN(CCCl)C(=O)N[C@H]1CC[C@@H](O)CC1
GI50 [22]: 3.76 µM (inactive) | GI50 [23]: 3.41 µM (inactive) | GI50 [24]: 28.2 µM (inactive)

CC(C)NC(=O)OCc1c(CO)c2c(n1C)-c1ccccc1CC2
GI50 [22]: 7.59 µM (inactive) | GI50 [23]: 6.9 µM (inactive) | GI50 [24]: 18.1 µM (inactive)

C/C(=N\NC(=O)c1ccc(Cl)cc1)c1ccc(Br)s1
AC50 ([1]; read-out: AC50): 17.8 µM (inconclusive) | AC50 [2]: inconclusive | EC50 [25]: 1.91 µM (active) | AC50 [26]: 14.1 µM (inconclusive)

O=c1[nH]cc(/N=C/c2cc([N+](=O)[O-])ccc2O)c(=O)[nH]1
EC50 [8]: > 38 µM (not active) | EC50 [9]: > 150 µM (inactive) | AC50 [16]: 5.98 µM (active) | EC50 [18]: 5.48 µM (active)

CC(C)(C)NC[C@H](O)COc1nsnc1N1CCOCC1 [TIMOLOL]
AC50 [2]: inactive
